What all share (format): in vivo
In one series the test system is Aphis gossypii. As to the kind of experiment: Insecticidal activity (controlling value) on cotton grown from treated seeds. The following applies: soil treated with flumioxazin 50 or 75 g/ha, six days after release of Aphis gossypii. The protocol:
For evaluating the insecticidal activity, life or death of an insect at investigation is determined, and a controlling value is obtained by the following equation:
Controlling value(%)=100×(1−T/C)
C: Number of insects at observation of non-treated section T: Number of insects at observation of treated-section
(§1) Into a plastic cup having an internal diameter of 96 millimeters and a height of 44 millimeters are placed 25 microliters of a clothianidin suspension (suspension containing 600 g/L clothianidin, trade name: NipsIt INSIDE, manufactured by Valent USA) and 50 grains of cotton seeds. By shaking this plastic cup with a hand, the clothianidin suspension is attached to the cotton seeds.
Fifteen days after seeding with the cotton seeds, a cotton leaf piece on which 20 larvae and 20 adults of Aphis gossypii inhabited is placed in the pot, and the whole plant is covered with a nylon cloth.
(§2) Six days after release of Aphis gossypii, the insecticidal activity, herbicidal activity and phytotoxicity are determined, and high weed controlling activity (>80) and high Aphis gossypii control value (>70) are obtained, and the phytotoxicity on the cotton is “no damage”. […]

Another series concerns cotton. The series is described as follows: Phytotoxicity on crop. The arrangement: key: when phytotoxicity is hardly perceived, it is represented by “no damage”; when slight phytotoxicity is perceived, it is represented by “slight”; when moderate phytotoxicity is perceived, it is represented by “moderate”; when severe phytotoxicity is perceived, it is represented by “severe”. The following applies: soil treated with flumioxazin 50 or 75 g/ha 15 days before seeding.
Source text: For evaluation of phytotoxicity on a crop, when phytotoxicity is hardly perceived, it is represented by “no damage”, when slight phytotoxicity is perceived, it is represented by “slight”, when moderate phytotoxicity is perceived, it is represented by “moderate”, and when severe phytotoxicity is perceived, it is represented by “severe”. The “phytotoxicity” evaluated herein is a damage characteristic determined to be caused by the treated compound, and is clearly discriminated from a damage characteristic caused by a pest.
as §1
Into a pot made of a plastic having an internal diameter of 177 millimeters and a height of 140 millimeters is packed a soil in which each of about 500 milligrams of seeds of Conyza canadensis, Amaranthus palmeri and Chenopodium album are mixed. A liquid of a flumioxazin water dispersible granule (water dispersible granule containing 51% of flumioxazin, trade name: Valor SX, manufactured by Valent USA) diluted with water is uniformly sprayed on the soil surface of this pot with a sprayer, so that flumioxazin is applied in an amount of 50 or 75 g/ha. Fifteen days after spraying, the cotton seeds are seeded at 5 grains per pot.
Six days after release of Aphis gossypii, the insecticidal activity, herbicidal activity and phytotoxicity are determined, and high weed controlling activity (>80) and high Aphis gossypii control value (>70) are obtained, and the phytotoxicity on the cotton is “no damage”.
Into a plastic cup having an internal diameter of 96 millimeters and a height of 44 millimeters are placed 25 microliters of a thiamethoxam preparation (preparation containing 600 g/L thiamethoxam, trade name: Cruiser 5FS, manufactured by Syngenta) and 50 grains of cotton seeds. By shaking this plastic cup with a hand, the thiamethoxam preparation is attached to the cotton seeds.

The test system of series [1] is Conyza canadensis, Amaranthus palmeri and Chenopodium album. As to the kind of experiment: Herbicidal activity in pot test, soil surface treated before seeding with treated cotton seeds. As to conditions: assessed 21 days after seeding.
Source text: Evaluation of herbicidal activity is classified into 0 to 100, letting no or little difference when the state of germination or growth of a test weed at investigation is compared with that of non-treatment to be “0”, and letting complete withering of a test weed or complete inhibition of germination or growth to be “100”.
as §1
Into a pot made of a plastic having an internal diameter of 177 millimeters and a height of 140 millimeters is packed a soil in which each of about 500 milligrams of seeds of Conyza canadensis, Amaranthus palmeri and Chenopodium album are mixed. […]
as §2

Where [2] appears, read: Example 1: clothianidin-treated cotton seeds.
[3] abbreviates: Example 2: thiamethoxam-treated cotton seeds.

As for `CN/C(=N\[N+](=O)[O-])NCc1cnc(Cl)s1` [clothianidin], the “Aphis gossypii control value” in the series on Aphis gossypii (Example 1: clothianidin suspension (NipsIt INSIDE, 600 g/L) 25 microliters per 50 cotton seeds) was over 70%. In addition, the “phytotoxicity on the cotton” value with cotton (setting [2]) was “no damage”.
As for `C#CCN1C(=O)COc2cc(F)c(N3C(=O)C4=C(CCCC4)C3=O)cc21` [flumioxazin], the “phytotoxicity on the cotton” value in the series with cotton (setting [2]) and with cotton (setting [3]) was “no damage” throughout. Moreover, the “weed controlling activity (herbicidal activity, scale 0 to 100)” value is given as over 80 in series [1] (Example 1: flumioxazin (Valor SX) 50 or 75 g/ha on soil surface 15 days before seeding, cotton seeds treated with clothianidin) and over 80 in series [1] (Example 2: flumioxazin (Valor SX) 50 or 75 g/ha on soil surface 15 days before seeding, cotton seeds treated with thiamethoxam).
Turning to `CN1COCN(Cc2cnc(Cl)s2)/C1=N\[N+](=O)[O-]` [thiamethoxam], the “Aphis gossypii control value” in the series with Aphis gossypii (Example 2: thiamethoxam preparation (Cruiser 5FS, 600 g/L) 25 microliters per 50 cotton seeds) is on record as over 70%. Moreover, the “phytotoxicity on the cotton” value in the series on cotton (setting [3]) is given as “no damage”.

The values are drawn from patent publication US20130150243A1, “METHOD OF CONTROLLING PEST” (SUMITOMO CHEMICAL COMPANY, LIMITED, priority 2011, published 2013).
